Source: EPA's ToxValDB 9.5 (doi:10.2903/j.efsa.2016.4416)
Converted amounts (≈) assume the structure as drawn.

Legend:
Neomysis kadiakensis = conditions: for LC50: acute, mortality
Folsomia candida = conditions: chronic/long-term; duration: 28 days; mortality
Oncorhynchus mykiss = conditions: for LC50: acute, duration: 96 hours, mortality
Tagia sp. = conditions: for NOEC: chronic/long-term, duration: 56 days, reproduction
Anas platyrhynchos = conditions: acute; oral; unspecified; mortality
Bibionidae = conditions: chronic/long-term; duration: 22 days; other
Oryctolagus sp. = conditions: developmental; development
Apis mellifera = conditions: acute, mortality

| SMILES | LC50 (Neomysis kadiakensis; duration: 48 hours) [µg/mL] | LC50 (Neomysis kadiakensis; duration: 96 hours) [µg/mL] | NOAEL (Colinus virginianus; chronic, reproduction) [mg/kg-day] | NOEC (Folsomia candida) [mg/kg] | LC50 (Oncorhynchus mykiss) [µg/mL] | NOEC (Tagia sp.) [mg/kg] | NOAEL (Rattus norvegicus; subchronic, duration: 90 days, M) [mg/kg-day] | LD50 (Rattus norvegicus; acute, mortality) [mg/kg] | NOAEL (Rattus norvegicus; chronic, duration: 2 years, histopathology: nonneoplastic) [mg/kg-day] | NOAEL (Rattus norvegicus; reproduction developmental, organ weight) [mg/kg-day] | NOEC (Neomysis kadiakensis; chronic/long-term, other) [mg/L] | LD50 (Anas platyrhynchos) [mg/kg-day] | NOEC (Bibionidae) [mg/L] | LD50 (Colinus virginianus; acute, oral, mortality) [mg/kg-day] | NOAEL (Oryctolagus sp.) [mg/kg-day] | NOEC (Oncorhynchus mykiss; chronic/long-term, duration: 28 days, growth) [mg/L] | LC50 (Tagia sp.; acute, duration: 14 days, mortality) [mg/kg] | LD50 (Apis mellifera; dermal) [µg/piece] | LD50 (Apis mellifera; oral, unspecified) [µg/piece] |
| --- | --- | --- | --- | --- | --- | --- | --- | --- | --- | --- | --- | --- | --- | --- | --- | --- | --- | --- | --- |
| CS(=O)(=O)c1cc(C(F)(F)F)ccc1C(=O)C(C#N)C(=O)C1CC1 (configuration not stated) | 24 (≈ 66.8 µM) | 3.7 (≈ 10.3 µM) | 25 | > 100 | > 15 | 9 |  |  |  |  |  |  |  |  |  |  |  |  |  |
| CS(=O)(=O)c1cc(C(F)(F)F)ccc1C(=O)O [2-Methylsulfonyl-4-trifluoromethylbenzoic acid] |  |  |  |  |  |  | 769 |  |  |  |  |  |  |  |  |  |  |  |  |
| CS(=O)(=O)c1cc(C(F)(F)F)ccc1C(=O)c1cnoc1C1CC1 [Isoxaflutole] | > 0.077 |  |  |  | > 1.7 | 8.9 |  | > 5000 | 2 | 2 | 0.001 | > 2150 | 0.1 | > 2150 | 5 | 0.08 | > 500 | > 100 | > 109 |
